Measured values published in publication PMC9405102, “Targeted Modification and Structure-Activity Study of GL-29, an Analogue of the Antimicrobial Peptide Palustrin-2ISb” (Antibiotics, 2022).
Values after ≈ are worked out from the molar mass of the structure shown. Like-named read-outs stand apart in the source and are kept apart here. Where a SMILES comes first, the peptide text is derived from it. Where no end group is shown, it is not given here.

Assays:
[1] = system: E. faecalis (NCTC 12697); assay type: cell-based, Enterococcus faecalis
Protocol: (§1) The MBIC and MBEC assays were performed to measure the inhibition and eradication of bacterial biofilm in the presence of different concentrations of peptides. Gram-positive bacteria were inoculated in Luria–Bertani (LB) broth at 37 °C overnight whereas Gram-negative bacteria were inoculated in tryptic soy broth (TSB), and then sub-cultured until reaching the logarithmic growth phase by measuring the OD values at a wavelength of 550nm. For the MBIC assay, 99 µL of diluted bacterial suspension (5 × 10^5 CFU/mL) was mixed with 1 µL of prepared peptide solutions in the wells of a round-bottomed 96-well plate, achieving the final concentrations from 512 to 1 µM, and then incubated at 37 °C for 24 h in a shaking incubator at 200 revolutions per minute (rpm). After this, the plate was washed twice by PBS and fixed with methanol for 30 min. For MBEC assay, 100 µL of diluted bacterial suspension (5 × 10^5 CFU/mL) was seeded into a round-bottomed 96-well plate and incubated at 37 °C for 24 h in a shaking incubator at 200 rpm to obtain mature biofilm. After this, plates were washed twice by PBS and incubated with different concentrations of peptide solution from 512 to 1 µM at 37 °C for 24 h. Afterwards, the plate was washed twice with PBS and fixed with methanol for 30 min. Then, both MBIC and MBEC plates were stained by 130 μL of 0.1% (g/v) crystal violet solutions for 30 min and washed with PBS until no apparent staining was observed. Evaporating crystal violet stains were dissolved by 33% (v/v) acetic acid, and the absorbance values were measured by a Synergy HT Microplate Reader (BioTek, Minneapolis, MN, USA) set to 595 nm. The minimum concentration that inhibited the formation of biofilm was defined when compared to the negative control group, as the MBIC. The minimum concentration that eradicated the biofilm was defined, when compared to the negative control group, as the MBEC. The biofilm assays were performed in triplicate.

[2] = system: S. aureus (ATCC CRM 6538); assay type: cell-based, Staphylococcus aureus
Protocol: (§2) The antimicrobial activity of the peptides was determined through the minimum inhibitory concentrations (MICs) and the minimum bactericidal concentration (MBCs) using the broth-dilution method in a 96-well plate, as described in the previous study. Six bacteria, including the Gram-positive bacteria, S. aureus (ATCC CRM 6538), MRSA (ATCC CRM 12493) and E. faecalis (NCTC 12697), the Gram-negative bacteria, E. coli (ATCC CRM 8739), K. pneumoniae (ATCC CRM 43816) and P. aeruginosa (ATCC CRM 9027), the yeast, C. albicans (ATCC CRM 10231) and clinical isolates, S. aureus (B042 V2E1 A), MRSA (B038 V1S1 A), E. coli (ATCC BAA-2340) and K. pneumoniae (ATCC BAA-1705) were used in these assays to evaluate the antimicrobial potency of the two peptides by determining their MICs and MBCs. All bacteria were cultured in MHB and the yeast, C. albicans was cultured in YPD broth overnight. Then, the microorganisms were sub-cultured and diluted to the final concentration of 2 × 10^5 CFU/mL to 5 × 10^5 CFU/mL. The Norfloxacin and amphotericin B were used as positive controls for the bacteria and yeast, respectively. The assay was repeated three times, with five replicates at each time.

[3] = system: S. aureus (B042 V2E1 A); assay type: cell-based, Staphylococcus aureus
Protocol: as §2

[4] = system: C. albicans (ATCC CRM 10231); assay type: cell-based, Candida albicans
Protocol: as §2

[5] = system: P. aeruginosa (ATCC CRM 9027); assay type: cell-based, Pseudomonas aeruginosa
Protocol: as §2

[6] = system: MRSA (ATCC CRM 12493); assay type: cell-based, methicillin-resistant S. aureus
Protocol: as §2

[7] = system: MRSA (B038 V1S1 A); assay type: cell-based, methicillin-resistant S. aureus
Protocol: as §2

[8] = system: MRSA (ATCC CRM 12493); assay type: cell-based, methicillin-resistant S. aureus; remark: listed apart in the source
Protocol: as §1

[9] = system: S. aureus (ATCC CRM 6538); assay type: cell-based, Staphylococcus aureus; remark: listed apart in the source
Protocol: as §1

[10] = system: P. aeruginosa (ATCC CRM 9027); assay type: cell-based, Pseudomonas aeruginosa; remark: listed apart in the source
Protocol: as §1

[11] = system: E. coli (ATCC BAA-2340); assay type: cell-based, Escherichia coli
Protocol: as §2

[12] = system: E. coli (ATCC CRM 8739); assay type: cell-based, Escherichia coli
Protocol: as §2

[13] = system: K. pneumoniae (ATCC CRM 43816); assay type: cell-based, Klebsiella pneumoniae
Protocol: as §2

[14] = system: K. pneumoniae (ATCC BAA-1705); assay type: cell-based, Klebsiella pneumoniae
Protocol: as §2

[15] = system: E. faecalis (NCTC 12697); assay type: cell-based, Enterococcus faecalis; remark: listed apart in the source
Protocol: as §2

[16] = system: E. coli (ATCC CRM 8739); assay type: cell-based, Escherichia coli; remark: listed apart in the source
Protocol: as §1

[17] = clinical isolated strain S. aureus (B042 V2E1 A)
[18] = clinical isolated strain MRSA (B038 V1S1 A)
[19] = KPC-producing resistant strain E. coli (ATCC BAA-2340)
[20] = KPC-producing resistant strain K. pneumoniae (ATCC BAA-1705)

Molecule: CC[C@H](C)[C@H](NC(=O)[C@H](CCCCN)NC(=O)[C@@H](NC(=O)[C@H](CO)NC(=O)[C@H](CC(N)=O)NC(=O)[C@H](Cc1c[nH]c2ccccc12)NC(=O)[C@H](CC(C)C)NC(=O)CN)[C@@H](C)CC)C(=O)N[C@@H](C)C(=O)NCC(=O)N[C@@H](CCCCN)C(=O)N[C@@H](CCCCN)C(=O)N[C@@H](CC(C)C)C(=O)N[C@@H](Cc1ccccc1)C(=O)N[C@H](C(=O)N[C@@H](CC(N)=O)C(=O)N[C@H](C(=O)N[C@@H](CC(C)C)C(=O)N[C@@H](CC(=O)O)C(=O)N[C@@H](CCCCN)C(=O)N[C@H](C(=O)N[C@@H](CCCNC(=N)N)C(=O)N[C@H]1CSSC[C@@H](C(=O)O)NC(=O)CNC(=O)CNC(=O)[C@H](C)NC(=O)[C@H](C(C)C)NC(=O)[C@H](CCCCN)NC1=O)[C@@H](C)CC)C(C)C)C(C)C [GL-29] (HELM PEPTIDE1{G.L.W.N.S.I.K.I.A.G.K.K.L.F.V.N.V.L.D.K.I.R.C.K.V.A.G.G.C}$PEPTIDE1,PEPTIDE1,23:R3-29:R3$$$V2.0; N-terminus and C-terminus assumed; bridges inferred)
- MBEC ([1]; NCTC 12697, 24 h): > 512 µM
- MBIC ([1]; NCTC 12697, 24 h): 16 µM
- MBC ([2]; ATCC CRM 6538): 4 µM (≈ 12.5 µg/mL)
- MIC ([2]; ATCC CRM 6538): 4 µM (≈ 12.5 µg/mL)
- MBC ([3]; B042 V2E1 A): 4 µM (≈ 12.5 µg/mL)
- MIC ([3]; B042 V2E1 A): 4 µM (≈ 12.5 µg/mL)
- MBC ([4]; ATCC CRM 10231): 256 µM (≈ 801 µg/mL)
- MIC ([4]; ATCC CRM 10231): 128 µM (≈ 401 µg/mL)
- MBC ([5]; ATCC CRM 9027): 16 µM (≈ 50.1 µg/mL)
- MIC ([5]; ATCC CRM 9027): 16 µM (≈ 50.1 µg/mL)
- MBC ([6]; ATCC CRM 12493): 8 µM (≈ 25 µg/mL)
- MIC ([6]; ATCC CRM 12493): 8 µM (≈ 25 µg/mL)
- MBC ([7]; B038 V1S1 A): 2 µM (≈ 6.26 µg/mL)
- MIC ([7]; B038 V1S1 A): 2 µM (≈ 6.26 µg/mL)
- MBEC ([8]; ATCC CRM 12493, 24 h): 256 µM
- MBIC ([8]; ATCC CRM 12493, 24 h): 8 µM
- MBEC ([9]; ATCC CRM 6538, 24 h): 128 µM
- MBIC ([9]; ATCC CRM 6538, 24 h): 4 µM
- MBEC ([10]; ATCC CRM 9027, 24 h): > 512 µM
- MBIC ([10]; ATCC CRM 9027, 24 h): 64 µM
- MBC ([11]; ATCC BAA-2340): 4 µM (≈ 12.5 µg/mL)
- MIC ([11]; ATCC BAA-2340): 2 µM (≈ 6.26 µg/mL)
- MBC ([12]; ATCC CRM 8739): 4 µM (≈ 12.5 µg/mL)
- MIC ([12]; ATCC CRM 8739): 2 µM (≈ 6.26 µg/mL)
- MBC ([13]; ATCC CRM 43816): 8 µM (≈ 25 µg/mL)
- MIC ([13]; ATCC CRM 43816): 8 µM (≈ 25 µg/mL)
- MBC ([14]; ATCC BAA-1705): 4 µM (≈ 12.5 µg/mL)
- MIC ([14]; ATCC BAA-1705): 4 µM (≈ 12.5 µg/mL)
- MBC ([15]; NCTC 12697): 32 µM (≈ 100 µg/mL)
- MIC ([15]; NCTC 12697): 16 µM (≈ 50.1 µg/mL)
- MBEC ([16]; ATCC CRM 8739, 24 h): 128 µM
- MBIC ([16]; ATCC CRM 8739, 24 h): 4 µM

Molecule: GLWNSIKIA-NH2 [GL-9, GLWNSIKIA-NH2]
- MBEC ([1]; biofilm eradication, E. faecalis (NCTC 12697)): >512 µM
- MBIC ([1]; biofilm formation, E. faecalis (NCTC 12697)): >512 µM
- MBC ([2]; S. aureus (ATCC CRM 6538)): 512 µM
- MIC ([2]; S. aureus (ATCC CRM 6538)): 512 µM
- MBC [3, 17]: >512 µM
- MIC [3, 17]: >512 µM
- MBC ([4]; C. albicans (ATCC CRM 10231)): >512 µM
- MIC ([4]; C. albicans (ATCC CRM 10231)): >512 µM
- MBC ([5]; P. aeruginosa (ATCC CRM 9027)): >512 µM
- MIC ([5]; P. aeruginosa (ATCC CRM 9027)): >512 µM
- MBC ([6]; MRSA (ATCC CRM 12493)): >512 µM
- MIC ([6]; MRSA (ATCC CRM 12493)): >512 µM
- MBC [7, 18]: >512 µM
- MIC [7, 18]: >512 µM
- MBEC ([8]; biofilm eradication, MRSA (ATCC CRM 12493)): >512 µM
- MBIC ([8]; biofilm formation, MRSA (ATCC CRM 12493)): >512 µM
- MBEC ([9]; biofilm eradication, S. aureus (ATCC CRM 6538)): >512 µM
- MBIC ([9]; biofilm formation, S. aureus (ATCC CRM 6538)): >512 µM
- MBEC ([10]; biofilm eradication, P. aeruginosa (ATCC CRM 9027)): >512 µM
- MBIC ([10]; biofilm formation, P. aeruginosa (ATCC CRM 9027)): >512 µM
- MBC [11, 19]: >512 µM
- MIC [11, 19]: >512 µM
- MBC ([12]; E. coli (ATCC CRM 8739)): > 512 µM
- MIC ([12]; E. coli (ATCC CRM 8739)): 512 µM
- MBC ([13]; K. pneumoniae (ATCC CRM 43816)): >512 µM
- MIC ([13]; K. pneumoniae (ATCC CRM 43816)): >512 µM
- MBC [14, 20]: >512 µM
- MIC [14, 20]: >512 µM
- MBC ([15]; E. faecalis (NCTC 12697)): >512 µM
- MIC ([15]; E. faecalis (NCTC 12697)): >512 µM
- MBEC ([16]; biofilm eradication, E. coli (ATCC CRM 8739)): 512/>512 μM
- MBIC ([16]; biofilm formation, E. coli (ATCC CRM 8739)): 512/>512 μM

Molecule: GLWNSIKIAGKKLFVNVLDKIR-NH2 [GL-22]
- MBEC ([1]; NCTC 12697, 24 h): > 512 µM
- MBIC ([1]; NCTC 12697, 24 h): 32 µM
- MBC ([2]; ATCC CRM 6538): 4 µM
- MIC ([2]; ATCC CRM 6538): 4 µM
- MBC ([3]; B042 V2E1 A): 64 µM
- MIC ([3]; B042 V2E1 A): 32 µM
- MBC ([4]; ATCC CRM 10231): 256 µM
- MIC ([4]; ATCC CRM 10231): 128 µM
- MBC ([5]; ATCC CRM 9027): 32 µM
- MIC ([5]; ATCC CRM 9027): 32 µM
- MBC ([6]; ATCC CRM 12493): 8 µM
- MIC ([6]; ATCC CRM 12493): 8 µM
- MBC ([7]; B038 V1S1 A): 4 µM
- MIC ([7]; B038 V1S1 A): 4 µM
- MBEC ([8]; ATCC CRM 12493, 24 h): > 512 µM
- MBIC ([8]; ATCC CRM 12493, 24 h): 8 µM
- MBEC ([9]; ATCC CRM 6538, 24 h): > 512 µM
- MBIC ([9]; ATCC CRM 6538, 24 h): 8 µM
- MBEC ([10]; ATCC CRM 9027, 24 h): > 512 µM
- MBIC ([10]; ATCC CRM 9027, 24 h): 128 µM
- MBC ([11]; ATCC BAA-2340): 4 µM
- MIC ([11]; ATCC BAA-2340): 2 µM
- MBC ([12]; ATCC CRM 8739): 4 µM
- MIC ([12]; ATCC CRM 8739): 4 µM
- MBC ([13]; ATCC CRM 43816): 4 µM
- MIC ([13]; ATCC CRM 43816): 4 µM
- MBC ([14]; ATCC BAA-1705): 4 µM
- MIC ([14]; ATCC BAA-1705): 4 µM
- MBC ([15]; NCTC 12697): 32 µM
- MIC ([15]; NCTC 12697): 32 µM
- MBEC ([16]; ATCC CRM 8739, 24 h): > 512 µM
- MBIC ([16]; ATCC CRM 8739, 24 h): 16 µM
